How the values were obtained:
Cholinesterase = Cholinesterase (Homo sapiens, UniProt P06276); assay: Inhibition of human butyrylcholinesterase
Acetylcholinesterase = Acetylcholinesterase (Homo sapiens, UniProt P22303); assay: Inhibition of human acetylcholinesterase 1
Liver carboxylesterase 1 = target: T1, Liver carboxylesterase 1 (Homo sapiens, UniProt P23141); assay: Inhibition of human carboxylesterase 1
T1 sequence (P23141 whole entry): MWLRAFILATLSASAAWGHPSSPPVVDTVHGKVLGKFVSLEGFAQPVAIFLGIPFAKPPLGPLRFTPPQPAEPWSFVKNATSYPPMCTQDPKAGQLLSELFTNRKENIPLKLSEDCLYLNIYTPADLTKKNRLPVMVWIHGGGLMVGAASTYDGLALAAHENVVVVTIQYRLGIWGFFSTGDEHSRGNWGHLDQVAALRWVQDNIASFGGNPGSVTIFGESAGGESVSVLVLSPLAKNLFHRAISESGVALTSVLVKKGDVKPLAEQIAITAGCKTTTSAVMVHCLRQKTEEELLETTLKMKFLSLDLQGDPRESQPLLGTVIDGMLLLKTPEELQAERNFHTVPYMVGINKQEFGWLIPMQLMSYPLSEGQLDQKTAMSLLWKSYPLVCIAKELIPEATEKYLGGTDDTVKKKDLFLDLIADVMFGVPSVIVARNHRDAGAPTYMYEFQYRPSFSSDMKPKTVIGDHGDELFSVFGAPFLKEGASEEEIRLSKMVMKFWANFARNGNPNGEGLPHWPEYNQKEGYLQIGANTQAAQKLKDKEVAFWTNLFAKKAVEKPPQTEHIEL

[1] = Inhibition of human intestinal carboxylesterase

Cholinesterase, sequence (P06276 whole entry): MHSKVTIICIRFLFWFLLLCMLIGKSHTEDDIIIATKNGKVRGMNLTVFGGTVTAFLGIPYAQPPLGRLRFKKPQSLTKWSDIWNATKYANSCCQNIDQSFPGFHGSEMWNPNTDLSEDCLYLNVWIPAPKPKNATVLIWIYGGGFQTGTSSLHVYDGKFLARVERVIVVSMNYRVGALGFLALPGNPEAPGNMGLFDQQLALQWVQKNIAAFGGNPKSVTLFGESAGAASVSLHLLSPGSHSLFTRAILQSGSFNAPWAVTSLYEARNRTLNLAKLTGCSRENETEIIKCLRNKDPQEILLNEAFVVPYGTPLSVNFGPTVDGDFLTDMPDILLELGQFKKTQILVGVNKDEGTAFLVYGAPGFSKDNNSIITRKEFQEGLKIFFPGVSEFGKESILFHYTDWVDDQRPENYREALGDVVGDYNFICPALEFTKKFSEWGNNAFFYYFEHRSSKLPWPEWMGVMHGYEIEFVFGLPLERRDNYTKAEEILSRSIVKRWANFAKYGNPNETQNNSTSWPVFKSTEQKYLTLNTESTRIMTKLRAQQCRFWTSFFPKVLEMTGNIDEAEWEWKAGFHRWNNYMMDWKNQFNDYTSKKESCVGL
Acetylcholinesterase, sequence (P22303 whole entry): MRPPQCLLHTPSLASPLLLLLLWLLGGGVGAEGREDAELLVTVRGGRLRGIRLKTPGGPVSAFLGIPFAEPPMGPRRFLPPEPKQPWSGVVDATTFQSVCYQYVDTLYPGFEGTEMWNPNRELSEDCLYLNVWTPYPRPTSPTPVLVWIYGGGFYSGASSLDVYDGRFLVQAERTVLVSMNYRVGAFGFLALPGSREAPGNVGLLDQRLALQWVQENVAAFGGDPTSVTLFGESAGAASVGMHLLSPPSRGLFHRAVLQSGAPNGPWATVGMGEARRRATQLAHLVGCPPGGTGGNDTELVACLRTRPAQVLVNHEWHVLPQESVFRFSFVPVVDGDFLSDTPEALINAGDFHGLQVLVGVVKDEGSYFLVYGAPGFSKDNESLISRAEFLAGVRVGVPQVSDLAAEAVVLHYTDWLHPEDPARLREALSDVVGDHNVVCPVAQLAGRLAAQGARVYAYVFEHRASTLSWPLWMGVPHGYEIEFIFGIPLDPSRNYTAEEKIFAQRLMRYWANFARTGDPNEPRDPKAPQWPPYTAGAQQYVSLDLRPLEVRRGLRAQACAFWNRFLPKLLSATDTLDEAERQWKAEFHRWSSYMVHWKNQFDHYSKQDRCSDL

Row | SMILES | Ki (Cholinesterase) | Ki (Acetylcholinesterase) | Ki (Liver carboxylesterase 1) | Ki [1]
1 | O=C(C(=O)c1ccc([N+](=O)[O-])cc1)c1ccc([N+](=O)[O-])cc1 | > 100 µM | > 100 µM | 9.8 µM | 0.47 µM
2 | O=C1C(=O)c2cccnc2-c2ncccc21 | > 100 µM | > 100 µM | 5.4 µM | > 100 µM
3 | O=C1C(=O)c2ccc([N+](=O)[O-])c3c([N+](=O)[O-])ccc1c23 | 3.1 µM | 0.903 µM | 0.57 µM | 0.62 µM
4 | O=C1C(=O)N2CCCc3cccc1c32 | > 100 µM | > 100 µM | 1.54 µM | 4.13 µM
5 | COc1ccccc1C(=O)C(=O)c1ccccc1OC | > 100 µM | – | > 100 µM | > 100 µM
6 | O=C1C(=O)c2cccc3c2N(CCC3)C1=O | > 100 µM | > 100 µM | 5.38 µM | > 100 µM
7 | CC1(C)[C@@H]2CC[C@]1(C)C(=O)C2=O (racemic) | > 100 µM | > 100 µM | > 100 µM | > 100 µM
8 | O=C1C(=O)c2ccccc2CCc2ccccc21 | > 100 µM | > 100 µM | 2.98 µM | 6.15 µM
9 | O=C1C(=O)c2cccc3cccc1c23 [ACENAPHTHOQUINONE] | 2.97 µM | > 100 µM | 0.031 µM | –
10 | O=C1C(=O)c2cc([N+](=O)[O-])ccc2-c2ccccc21 | 1.67 µM | 0.85 µM | 0.0159 µM | 0.107 µM
11 | O=C1Cc2ccccc2C1=O | 2.63 µM | > 100 µM | 5.24 µM | 5.47 µM
12 | O=C(C(=O)C1CCCCC1)C1CCCCC1 | > 100 µM | > 100 µM | 0.072 µM | 0.005 µM
13 | COc1ccc(C(=O)C(=O)c2ccc(C(=O)O)cc2)cc1 | > 100 µM | > 100 µM | – | –
14 | CCOc1ccc(C(=O)C(=O)c2ccc(OCC)cc2)cc1 | > 100 µM | > 100 µM | > 100 µM | 1.42 µM
15 | O=C1C=Cc2ccccc2C1=O [1,2-NAPHTHOQUINONE] | 2.29 µM | 0.32 µM | 0.93 µM | 2.4 µM
16 | O=C1C(=O)c2ccccc2-c2ccccc21 [9,10-PHENANTHRENEQUINONE] | 0.19 µM | > 100 µM | 0.0025 µM | –
17 | Cc1cc(C)c(C(=O)C(=O)c2c(C)cc(C)cc2C)c(C)c1 | > 100 µM | > 100 µM | > 100 µM | 4.04 µM
18 | O=C1C(=O)c2c3ccccc3cc3cccc1c23 | > 100 µM | > 100 µM | 0.0015 µM | 0.0077 µM
19 | O=C1C(=O)c2sccc2-c2ccsc21 | > 100 µM | > 100 µM | 0.15 µM | 0.85 µM
